Measurements reported in article PMC3004914, “Classification of Drugs Based on Properties of Sodium Channel Inhibition: A Comparative Automated Patch-Clamp Study” (PLoS ONE, 2010).
Read-outs that look alike come from different tables or passages of the source. One block for each compound: values may come before it.

Tests used:
[1] = human plasma, cited from earlier work
[2] = molecular target: T1, rNav1.2 sodium channels (HEK-293 cells) (Rattus norvegicus, UniProt P04775); experiment: 5 Hz train protocol, QPatch automated patch-clamp; format: cell-based; details: for Rev (reversibility): Rev = A5/A1 after washout; for inhibition at 30 µM / potency estimated from few doses / inhibition at 100 µM / inhibition at 300 µM: HEK293; for inhibition at 30 µM / inhibition at 100 µM / inhibition at 300 µM: −90 mV holding potential, read-out: Inh (inhibited fraction); for potency estimated from few doses: −90 mV, read-out: IC50;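 as to UD (use-dependence of the inhibition): UD = (A3/A4)/(A1/A2) as ratios of peak amplitudes from Figure 1A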
T1 sequence (P04775 whole entry): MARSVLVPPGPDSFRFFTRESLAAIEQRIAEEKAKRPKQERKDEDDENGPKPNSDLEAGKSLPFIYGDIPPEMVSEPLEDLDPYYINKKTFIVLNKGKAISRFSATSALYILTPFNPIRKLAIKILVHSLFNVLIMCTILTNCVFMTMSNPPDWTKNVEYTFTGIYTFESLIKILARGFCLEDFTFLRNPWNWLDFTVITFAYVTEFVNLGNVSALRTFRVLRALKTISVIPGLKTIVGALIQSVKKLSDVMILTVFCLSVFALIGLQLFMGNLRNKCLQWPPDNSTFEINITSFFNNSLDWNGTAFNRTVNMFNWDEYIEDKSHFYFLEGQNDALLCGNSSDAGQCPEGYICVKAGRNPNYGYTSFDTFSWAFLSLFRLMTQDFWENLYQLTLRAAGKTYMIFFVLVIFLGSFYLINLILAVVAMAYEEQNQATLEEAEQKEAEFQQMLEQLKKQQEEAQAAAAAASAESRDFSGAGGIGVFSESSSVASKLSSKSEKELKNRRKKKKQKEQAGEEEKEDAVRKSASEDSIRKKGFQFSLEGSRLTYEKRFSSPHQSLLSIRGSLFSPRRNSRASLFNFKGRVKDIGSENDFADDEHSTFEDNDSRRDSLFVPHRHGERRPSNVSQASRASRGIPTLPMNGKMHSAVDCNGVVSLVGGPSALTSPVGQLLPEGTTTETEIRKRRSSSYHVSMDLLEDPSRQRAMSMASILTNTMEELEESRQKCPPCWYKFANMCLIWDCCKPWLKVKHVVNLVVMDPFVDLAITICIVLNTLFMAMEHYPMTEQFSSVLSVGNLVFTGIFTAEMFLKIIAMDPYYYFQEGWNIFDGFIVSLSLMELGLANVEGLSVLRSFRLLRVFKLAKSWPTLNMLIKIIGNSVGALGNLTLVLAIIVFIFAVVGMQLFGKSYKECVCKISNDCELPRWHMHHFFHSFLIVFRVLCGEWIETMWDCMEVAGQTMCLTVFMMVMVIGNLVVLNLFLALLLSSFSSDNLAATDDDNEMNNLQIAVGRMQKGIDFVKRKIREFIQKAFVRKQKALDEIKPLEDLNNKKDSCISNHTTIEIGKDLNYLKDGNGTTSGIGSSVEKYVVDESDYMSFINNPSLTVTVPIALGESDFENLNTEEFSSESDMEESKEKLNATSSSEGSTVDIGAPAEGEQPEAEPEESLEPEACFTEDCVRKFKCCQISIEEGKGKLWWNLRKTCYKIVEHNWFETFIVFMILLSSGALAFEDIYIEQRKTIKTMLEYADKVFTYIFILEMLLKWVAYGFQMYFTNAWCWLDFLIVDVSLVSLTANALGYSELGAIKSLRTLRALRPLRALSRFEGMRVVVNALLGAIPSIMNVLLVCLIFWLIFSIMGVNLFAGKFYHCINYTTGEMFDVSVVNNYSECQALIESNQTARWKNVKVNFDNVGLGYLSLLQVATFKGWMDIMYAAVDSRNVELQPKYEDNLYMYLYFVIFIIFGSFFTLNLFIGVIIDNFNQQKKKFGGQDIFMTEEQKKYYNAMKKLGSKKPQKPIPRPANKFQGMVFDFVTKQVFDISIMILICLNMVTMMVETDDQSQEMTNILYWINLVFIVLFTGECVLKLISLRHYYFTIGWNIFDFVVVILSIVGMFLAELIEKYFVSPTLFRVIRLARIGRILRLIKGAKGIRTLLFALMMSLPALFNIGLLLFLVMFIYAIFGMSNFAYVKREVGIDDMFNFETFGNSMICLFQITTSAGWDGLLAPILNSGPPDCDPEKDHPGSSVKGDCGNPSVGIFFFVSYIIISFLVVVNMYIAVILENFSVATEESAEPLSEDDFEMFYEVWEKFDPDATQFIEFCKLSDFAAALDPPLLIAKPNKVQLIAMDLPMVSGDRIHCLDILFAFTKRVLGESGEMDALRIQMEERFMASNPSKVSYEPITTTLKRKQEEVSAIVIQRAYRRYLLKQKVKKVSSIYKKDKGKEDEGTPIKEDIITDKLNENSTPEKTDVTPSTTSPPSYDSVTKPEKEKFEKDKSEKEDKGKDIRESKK
Description: The dynamics of the onset and offset of inhibition was monitored using 5 Hz trains of five depolarizing pulses from a holding potential of −90 mV to −10 mV. The trains were repeated every 20 s. Drugs were applied after 10 control trains and 10 trains were delivered in the presence of the drug. The drug was then washed out, and the 10 trains were repeated.
We measured inhibition (Inh; from which we calculated IC50 values as described in Materials and Methods), reversibility of inhibition (Rev) and use-dependence (UD), as well as time constant of onset (τon) and offset (τoff). The calculation of IC50, quantification of Rev and UD, and the determination of time constants are illustrated in Figure 1A. Because τon should be concentration-dependent if we assume a single binding reaction, we excluded it from the analyses. […] Comments on the interpretation of these properties (Rev, […] and UD) are in Results S1.
(§1) A)–D) Peak amplitudes of evoked currents (5 Hz trains of 5 depolarizations from −90 to −10 mV) are plotted against time. Black dots: Control. Grey dots: Drug perfusion. […] Calculation of properties of inhibition is illustrated. […] E) Calculation of Kr and Ki values from steady-state availability curves.
(§2) HEK-293 cells stably expressing rNav1.2 sodium channels were obtained from NeuroSearch (Ballerup, Denmark).
(§3) Cells were automatically prepared for application to the chips (centrifuged and washed twice, then resuspended in extracellular solution) as described previously. Composition of the extracellular solution was: (in mM): 140 NaCl, 3 KCl, 1 CaCl2, 1 MgCl2, 0.1 CdCl2, 20 TEA-Cl, 5 HEPES, adjusted to pH 7.3, Osmolality: ∼320 mOsm.
(§4) All electrophysiological experiments were conducted on Qpatch-16 or QPatch HT instruments using QPlate™ chips. For a detailed description of the instrument and the patch-clamp chips see [37], [38]. Data were sampled at a frequency of 25 kHz and filtered at 5 kHz. […] The amplifier was controlled and the data were collected by the Sophion QPatch client software. For initial data analysis the QPatch software was used. Built-in amplifiers provide an improved method for series resistance compensation. Leak subtraction (based on a standard P/n protocol) was used to subtract the capacitive component of currents.
From this protocol we extracted five parameters, as illustrated in Figure 1A. We calculated inhibition of a single “cc” concentration: Inh = (amplitudectr – amplitudedrug)/amplitudectr.

[3] = molecular target: T1, rNav1.2 sodium channels (HEK-293 cells); experiment: steady-state inactivation protocol (availability curves), QPatch automated patch-clamp; format: cell-based
Description: as §1
Standard steady-state inactivation protocols were used to measure the shift of steady-state availability curve caused by the drugs. Currents were evoked by a 10 ms test pulse to −10 mV, preceded by 400 ms pre-pulses from −150 to −30 mV. […] Because the inhibition at hyperpolarized potentials (Inh−150), and the shift of the availability curves (ΔV1/2) are both concentration-dependent properties, we calculated affinities to hyperpolarized and depolarized states (“resting state affinity”: Kr, and “inactivated state affinity”: Ki), which, on the other hand, are concentration-independent characteristics of individual drugs. Calculation of Kr and Ki values are described in Materials and Methods, and illustrated in Figure 1E. State-dependence (SD) was quantified as the ratio Kr/Ki.
as §2, §3, §4
Inactivated affinity (Ki) values were calculated assuming a simple four-state model of drug binding and channel gating, using two separate methods: (1) from the shift of the availability curve (ΔV1/2), the slope of the Boltzmann fit of the availability curve (k) and Kr, using the formula described by Bean, Cohen and Tsien (Ki−ΔV1/2; see Figure 1E), or (2) from the apparent affinity (Kapp) at a certain pre-pulse potential, which was calculated from the inhibition (e.g. Inh−60) as described above, and the availability (h) at the same pre-pulse potential, using the formula from Kuo and Bean (Figure 1E). […] (Arithmetic means and SEM values are given in Results S7.)

sodium channels = details: averaged literature data, cited from earlier work; for Ki: read-out: Ki−Lit; for Kd: read-out: Kr−Lit
[4] = 30 μM, 500 s assigned where irreversible
[5] = calculated from Inh at single concentration 30 μM, 5 Hz train
[6] = HEK293, 30 µM, read-out: Inh (inhibited fraction) at holding potential −150 mV
[7] = arithmetic mean, 30 µM, read-out: Ki-Kapp arith
[8] = arithmetic mean, 30 µM, read-out: Ki-ΔV1/2 arith
[9] = arithmetic mean, 30 µM, read-out: Kr arith
[10] = geometric mean, from Inh at −150 mV, 30 µM, read-out: Kr (resting state affinity)
[11] = geometric mean, from apparent affinity, 30 µM, read-out: Ki−Kapp (inactivated state affinity)
[12] = geometric mean, from shift of availability curve, 30 µM, read-out: Ki−ΔV1/2 (inactivated state affinity)
[13] = HEK293, 100 µM, read-out: Inh (inhibited fraction) at holding potential −150 mV
[14] = arithmetic mean, 100 µM, read-out: Ki-Kapp arith
[15] = arithmetic mean, 100 µM, read-out: Ki-ΔV1/2 arith
[16] = arithmetic mean, 100 µM, read-out: Kr arith
[17] = geometric mean, from Inh at −150 mV, 100 µM, read-out: Kr (resting state affinity)
[18] = geometric mean, from apparent affinity, 100 µM, read-out: Ki−Kapp (inactivated state affinity)
[19] = geometric mean, from shift of availability curve, 100 µM, read-out: Ki−ΔV1/2 (inactivated state affinity)
[20] = 100 μM, 500 s assigned where irreversible
[21] = calculated from Inh at single concentration 100 μM, 5 Hz train
[22] = 300 μM, 3 s assigned where too short to be resolved
[23] = calculated from Inh at single concentration 300 μM, 5 Hz train
[24] = HEK293, 300 µM, read-out: Inh (inhibited fraction) at holding potential −150 mV
[25] = arithmetic mean, 300 µM, read-out: Ki-Kapp arith
[26] = arithmetic mean, 300 µM, read-out: Ki-ΔV1/2 arith
[27] = arithmetic mean, 300 µM, read-out: Kr arith
[28] = geometric mean, from Inh at −150 mV, 300 µM, read-out: Kr (resting state affinity)
[29] = geometric mean, from apparent affinity, 300 µM, read-out: Ki−Kapp (inactivated state affinity)
[30] = geometric mean, from shift of availability curve, 300 µM, read-out: Ki−ΔV1/2 (inactivated state affinity)

Compound: CN(C)CCC=C1c2ccccc2CCc2ccccc21 [AMI, Amitriptyline]
plasma conc. ([1]; as printed in each cell): 0.064 [44] µg/ml
plasma conc. ([1]; as printed in the µg/ml cell): 0.204 µM
τon ([2]; 30 μM): 10.54 s
UD (use-dependence of the inhibition) ([2]; 30 μM, 5 Hz train): 1.66
τoff [2, 4]: 16.95 s
Rev (reversibility) ([2]; 30 μM): 0.50
inhibition at 30 µM ([2]; 30 μM, 5 Hz train): 56%
potency estimated from few doses [2, 5]: 23.5 µM
ΔV1/2 (shift of availability curve) ([3]; 10 µM): −11.3 mV
ΔV1/2 (shift of availability curve) ([3]; 30 μM): −11.2 mV
ΔV1/2 (shift of availability curve) ([3]; 100 μM): −18 mV
inhibition at 10 µM ([3]; HEK293, 10 µM, read-out: Inh (inhibited fraction) at holding potential −150 mV): 8%
inhibition at 30 µM [3, 6]: 20%
inhibition at 100 µM [3, 13]: 59%
Ki ([3]; arithmetic mean, 10 µM, read-out: Ki-Kapp arith): 5.17 µM
Ki ([3]; arithmetic mean, 10 µM, read-out: Ki-ΔV1/2 arith): 1.97 µM
Kd ([3]; arithmetic mean, 10 µM, read-out: Kr arith): 155 µM
Ki [3, 7]: 5.13 µM
Ki [3, 8]: 3.78 µM
Kd [3, 9]: 128 µM
Ki [3, 14]: 2.08 µM
Ki [3, 15]: 1.87 µM
Kd [3, 16]: 72.4 µM
Kd ([3]; geometric mean, from Inh at −150 mV, 10 µM, read-out: Kr (resting state affinity)): 134 µM
Kd [3, 10]: 125 µM
Kd [3, 17]: 69.6 µM
Ki ([3]; geometric mean, from apparent affinity, 10 µM, read-out: Ki−Kapp (inactivated state affinity)): 3.34 µM
Ki [3, 11]: 4.92 µM
Ki [3, 18]: 2 µM
Ki ([3]; geometric mean, from shift of availability curve, 10 µM, read-out: Ki−ΔV1/2 (inactivated state affinity)): 1.45 µM
Ki [3, 12]: 3.69 µM
Ki [3, 19]: 1.65 µM
Ki (sodium channels): 0.52 µM
Kd (sodium channels): 38.1 µM

Compound: CCCCN1CCCCC1C(=O)Nc1c(C)cccc1C (stereo not drawn) [BPV, Bupivacaine]
plasma conc. ([1]; as printed in each cell): 0.8 [44] µg/ml
plasma conc. ([1]; as printed in the µg/ml cell): 2.462 µM
τon ([2]; 100 μM): 7.95 s
UD (use-dependence of the inhibition) ([2]; 100 μM, 5 Hz train): 1.62
τoff [2, 20]: 16.73 s
Rev (reversibility) ([2]; 100 μM): 0.75
use-dependence (UD) ([2]; 5 Hz train): high use-dependence
inhibition at 100 µM ([2]; 100 μM, 5 Hz train): 60%
potency estimated from few doses [2, 21]: 67.7 µM
ΔV1/2 (shift of availability curve) ([3]; 100 μM): −11.3 mV
inhibition at 100 µM [3, 13]: 14%
Ki [3, 14]: 8.21 µM
Ki [3, 15]: 6.46 µM
Kd [3, 16]: 635 µM
Kd [3, 17]: 619 µM
Ki [3, 18]: 7.79 µM
Ki [3, 19]: 5.85 µM
Ki (sodium channels): 20.1 µM
Kd (sodium channels): 291 µM

Compound: NC(=O)N1c2ccccc2C=Cc2ccccc21 [CBZ, Carbamazepine]
plasma conc. ([1]; as printed in each cell): 9.3 [44] µg/ml
plasma conc. ([1]; as printed in the µg/ml cell): 39.362 µM
τoff ([2]; 300 μM): 10.01 s
τon [2, 22]: 3 s
UD (use-dependence of the inhibition) ([2]; 300 μM, 5 Hz train): 0.98
Rev (reversibility) ([2]; 300 μM): 0.87
inhibition at 300 µM ([2]; 300 μM, 5 Hz train): 29%
potency estimated from few doses [2, 23]: 718 µM
potency ([2]; in words): among the least potent SCIs
ΔV1/2 (shift of availability curve) ([3]; 300 μM): −11.4 mV
inhibition at 300 µM [3, 24]: 21%
Ki [3, 25]: 26.9 µM
Ki [3, 26]: 40.1 µM
Kd [3, 27]: 1180 µM
Kd [3, 28]: 1170 µM
Ki [3, 29]: 26.4 µM
Ki [3, 30]: 39.9 µM
Ki (sodium channels): 21.8 µM
Kd (sodium channels): 946 µM

Compound: Cc1cccc(C)c1OCC(C)N (stereo not drawn) [MEX, Mexiletine]
plasma conc. ([1]; as printed in each cell): 2 [44] µg/ml
plasma conc. ([1]; as printed in the µg/ml cell): 9.271 µM
τoff ([2]; 300 μM): 12.93 s
τon [2, 22]: 8.6 s
UD (use-dependence of the inhibition) ([2]; 300 μM, 5 Hz train): 1.39
Rev (reversibility) ([2]; 300 μM): 0.78
inhibition at 300 µM ([2]; 300 μM, 5 Hz train): 57%
potency estimated from few doses [2, 23]: 231 µM
ΔV1/2 (shift of availability curve) ([3]; 300 μM): −10.3 mV
inhibition at 300 µM [3, 24]: 32%
Ki ([3]; Ki-ΔV1/2 arith, arithmetic mean, 300 µM): 37.3 µM
Ki ([3]; Ki−ΔV1/2 (inactivated state affinity), geometric mean, from shift of availability curve, 300 µM): 26.8 µM
Ki [3, 25]: 19.2 µM
Kd [3, 27]: 662 µM
Kd [3, 28]: 638 µM
Ki [3, 29]: 17.9 µM
Ki (sodium channels): 12.4 µM
Kd (sodium channels): 395 µM

Continued, in another order:

τon ([2]; 30 μM): 32.07 s
UD (use-dependence of the inhibition) ([2]; 30 μM, 5 Hz train): 1.46
τoff [2, 4]: 35.99 s
Rev (reversibility) ([2]; 30 μM): 0.34
inhibition at 30 µM ([2]; 30 μM, 5 Hz train): 65%
potency estimated from few doses [2, 5]: 16.2 µM
ΔV1/2 (shift of availability curve) ([3]; 30 μM): −11.4 mV
inhibition at 30 µM [3, 6]: 55%
Ki [3, 7]: 1.63 µM
Ki [3, 8]: 8.99 µM
Kd [3, 9]: 32.1 µM
Kd [3, 10]: 24.2 µM
Ki [3, 11]: 0.73 µM
Ki [3, 12]: 1.99 µM
Compound: Fc1ccc([C@@H]2CCNC[C@H]2COc2ccc3c(c2)OCO3)cc1 [PRX, Paroxetine]
plasma conc. ([1]; as printed in each cell): 0.38 [44] µg/ml
Ki (sodium channels): 1.45 µM
Kd (sodium channels): 17 µM

τon ([2]; 100 μM): 8.13 s
UD (use-dependence of the inhibition) ([2]; 100 μM, 5 Hz train): 1.21
τoff [2, 20]: 13.24 s
Rev (reversibility) ([2]; 100 μM): 0.89
inhibition at 100 µM ([2]; 100 μM, 5 Hz train): 16%
potency estimated from few doses [2, 21]: 355 µM
(IC50/Ki) / (Kr/Ki) ratio ([2]; from IC50 (5 Hz train) and Kr, Ki (steady-state inactivation)): 0.94
ΔV1/2 (shift of availability curve) ([3]; 300 μM): −5.52 mV
inhibition at 300 µM [3, 24]: 42%
Ki [3, 25]: 19.7 µM
Ki [3, 26]: 77.9 µM
Kd [3, 27]: 587 µM
Kd [3, 28]: 435 µM
Ki [3, 29]: 10.7 µM
Ki [3, 30]: 66.8 µM
Compound: COc1ccccc1OCC(O)CN1CCN(CC(=O)Nc2c(C)cccc2C)CC1 (stereo not drawn) [RAN, Ranolazine]
plasma conc. ([1]; as printed in each cell): 3.59 [52] µg/ml
plasma conc. ([1]; as printed in the µg/ml cell): 7.173 µM
Ki (sodium channels): 75 µM
Kd (sodium channels): 1000 µM
